For one assay, the target named is T1, Cannabinoid CB2 Receptor (Homo sapiens, UniProt P34972).
T1 construct: expressed in transfected cells; semi-purified membrane pellet
Kind of assay: Binding assay, cannabinoid CB2 receptor ([3H]-CP-55,940 displacement, SK-N-MC cell membranes). The note with it: test concentration of 0.2 μM, human CB2 in SK-N-MC membranes; for inhibition at 0.2 µM: read-out: Cannabinoid CB2 Receptor Binding, percent inhibition. In short, it runs like this: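 Membranes from SK-N-MC cells stably expressing human CB2 were incubated 90 min at 30 °C with 0.2 nM [3H]-CP-55,940 in Tris buffer, pH 7.5, with BSA; 10 uM WIN 55,212 defined non-specific binding. Filter-bound counts gave IC50 by linear regression, or % inhibition at 0.2 μM.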

A further assay deals with T2, Cannabinoid CB1 Receptor (Homo sapiens, UniProt P21554).
T2 construct: expressed in transfected cells; semi-purified membrane pellet
Kind of assay: Binding assay, cannabinoid CB1 receptor ([3H]-CP-55,940 displacement, SK-N-MC cell membranes). The note with it: for inhibition at 0.2 µM: read-out: Cannabinoid CB1 Receptor Binding, percent inhibition.

[1] abbreviates: test concentration of 0.2 μM, human CB1 in SK-N-MC membranes.

These results are taken from patent publication US20100069341A1, “TETRAHYDRO-PYRANOPYRAZOLE CANNABINOID MODULATORS” (priority 2005, published 2010).

Where two headings read alike, the source gives them in different places.

For orientation: inhibition means the relative decrease from the control value, in per cent. The term IC50 denotes the concentration needed to halve the response being measured.

T1 sequence (P34972 whole entry): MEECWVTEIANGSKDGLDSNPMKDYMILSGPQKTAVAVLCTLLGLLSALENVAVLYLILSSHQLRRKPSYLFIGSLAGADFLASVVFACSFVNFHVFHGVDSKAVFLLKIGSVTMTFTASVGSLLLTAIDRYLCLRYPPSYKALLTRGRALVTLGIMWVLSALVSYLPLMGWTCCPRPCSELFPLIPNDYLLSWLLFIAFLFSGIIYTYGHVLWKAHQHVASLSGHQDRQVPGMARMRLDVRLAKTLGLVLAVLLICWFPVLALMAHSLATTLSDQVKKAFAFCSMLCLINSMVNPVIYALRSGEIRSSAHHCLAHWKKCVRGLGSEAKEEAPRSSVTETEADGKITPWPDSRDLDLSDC
T2 sequence (P21554 whole entry): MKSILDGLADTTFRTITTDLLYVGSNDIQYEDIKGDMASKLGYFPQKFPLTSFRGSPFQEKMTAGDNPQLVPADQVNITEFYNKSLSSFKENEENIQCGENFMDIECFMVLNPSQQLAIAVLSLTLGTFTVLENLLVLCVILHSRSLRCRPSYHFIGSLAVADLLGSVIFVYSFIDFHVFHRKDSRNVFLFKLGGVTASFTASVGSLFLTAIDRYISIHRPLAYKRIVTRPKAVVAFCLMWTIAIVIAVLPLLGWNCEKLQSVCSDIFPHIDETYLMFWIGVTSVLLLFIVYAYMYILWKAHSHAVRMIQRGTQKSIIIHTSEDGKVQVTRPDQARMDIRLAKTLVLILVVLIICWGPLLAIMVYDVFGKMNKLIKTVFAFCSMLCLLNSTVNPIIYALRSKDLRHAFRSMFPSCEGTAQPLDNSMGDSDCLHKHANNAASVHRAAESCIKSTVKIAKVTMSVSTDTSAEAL

As for `CC(NC(=O)c1nn(-c2ccc(Cl)cc2Cl)c2c1COC/C2=C\c1ccc(Cl)s1)c1ccccn1` (centres unmarked) [Cpd 60, (7Z)-7-(5-chloro-thiophen-2-ylmethylene)-1-(2,4-dichloro-phenyl)-1,4,6,7-tetrahydro-pyrano[4,3-c]pyrazole-3-carboxylic acid (1-pyridin-2-yl-ethyl)-amide], the inhibition at 0.2 µM at Cannabinoid CB2 Receptor turned out to be 7%; on Cannabinoid CB1 Receptor (setting [1]) it was 58%.
Consider `C[C@@H](NC(=O)c1nn(-c2ccc(Cl)cc2Cl)c2c1COC/C2=C\c1ccc(Cl)s1)c1ccccn1` [Cpd 61, (7Z)-7-(5-chloro-thiophen-2-ylmethylene)-1-(2,4-dichloro-phenyl)-1,4,6,7-tetrahydro-pyrano[4,3-c]pyrazole-3-carboxylic acid [(R)-1-pyridin-2-yl-ethyl]-amide], for which the inhibition at 0.2 µM on Cannabinoid CB2 Receptor is 9.5%; at Cannabinoid CB1 Receptor (setting [1]) it was 84%. Also, the IC50 at Cannabinoid CB1 Receptor turned out to be 0.05 µM.
As for `C[C@@H](NC(=O)c1nn(-c2ccc(Cl)cc2Cl)c2c1COC/C2=C\c1ccc(Cl)o1)C1CCCCC1` [Cpd 62, (7Z)-7-(5-chloro-furan-2-ylmethylene)-1-(2,4-dichloro-phenyl)-1,4,6,7-tetrahydro-pyrano[4,3-c]pyrazole-3-carboxylic acid [(R)-1-cyclohexyl-ethyl]-amide], the inhibition at 0.2 µM at Cannabinoid CB2 Receptor stood at 17%. On Cannabinoid CB1 Receptor, the 50% inhibitory concentration (IC50) stood at 0.03 µM and the inhibition at 0.2 µM came to 74%.
Turning to `C[C@H](NC(=O)c1nn(-c2ccc(Cl)cc2Cl)c2c1COC/C2=C\c1ccc(Cl)o1)C1CCCCC1` [Cpd 63, (7Z)-7-(5-chloro-furan-2-ylmethylene)-1-(2,4-dichloro-phenyl)-1,4,6,7-tetrahydro-pyrano[4,3-c]pyrazole-3-carboxylic acid [(S)-1-cyclohexyl-ethyl]-amide], the results for the inhibition at 0.2 µM on Cannabinoid CB2 Receptor and at Cannabinoid CB1 Receptor were 10% and 25%, respectively.
In the case of `O=C(NN1CCCCC1)c1nn(-c2ccc(Cl)cc2Cl)c2c1COC/C2=C\c1ccc(Cl)o1` [Cpd 64, (7Z)-7-(5-chloro-furan-2-ylmethylene)-1-(2,4-dichloro-phenyl)-1,4,6,7-tetrahydro-pyrano[4,3-c]pyrazole-3-carboxylic acid piperidin-1-ylamide], the inhibition at 0.2 µM at Cannabinoid CB2 Receptor was found to be 12%; on Cannabinoid CB1 Receptor (setting [1]), 62%.
Take `O=C(NN1CCCCCC1)c1nn(-c2ccc(Cl)cc2Cl)c2c1COC/C2=C\c1ccc(Cl)o1` [Cpd 65, (7Z)-7-(5-chloro-furan-2-ylmethylene)-1-(2,4-dichloro-phenyl)-1,4,6,7-tetrahydro-pyrano[4,3-c]pyrazole-3-carboxylic acid azepan-1-ylamide]: the inhibition at 0.2 µM at Cannabinoid CB2 Receptor was 9%; at Cannabinoid CB1 Receptor (setting [1]) it was 71%. The molecule also gave an IC50 on Cannabinoid CB1 Receptor of 0.07 µM.
Take `C[C@@H](NC(=O)c1nn(-c2ccc(Cl)cc2Cl)c2c1COC/C2=C\c1ccc(Cl)o1)c1ccccn1` [Cpd 66, (7Z)-7-(5-chloro-furan-2-ylmethylene)-1-(2,4-dichloro-phenyl)-1,4,6,7-tetrahydro-pyrano[4,3-c]pyrazole-3-carboxylic acid [(R)-1-pyridin-2-yl-ethyl]-amide]: the inhibition at 0.2 µM on Cannabinoid CB2 Receptor came out at 10%; on Cannabinoid CB1 Receptor (setting [1]), 58%.
Consider `CC(NC(=O)c1nn(-c2ccc(Cl)cc2Cl)c2c1COC/C2=C\c1ccc(Cl)o1)c1ccccn1` (centres unmarked) [Cpd 67, (7Z)-7-(5-chloro-furan-2-ylmethylene)-1-(2,4-dichloro-phenyl)-1,4,6,7-tetrahydro-pyrano[4,3-c]pyrazole-3-carboxylic acid (1-pyridin-2-yl-ethyl)-amide], for which the inhibition at 0.2 µM at Cannabinoid CB2 Receptor turned out to be 7%; on Cannabinoid CB1 Receptor (setting [1]), 40%.
As to `CC1CCCC(C)N1NC(=O)c1nn(-c2ccc(Cl)cc2Cl)c2c1COC/C2=C\c1ccc(Cl)o1` (centres unmarked) [Cpd 68, (7Z)-7-(5-chloro-furan-2-ylmethylene)-1-(2,4-dichloro-phenyl)-1,4,6,7-tetrahydro-pyrano[4,3-c]pyrazole-3-carboxylic acid (2,6-dimethyl-piperidin-1-yl)-amide], the inhibition at 0.2 µM on Cannabinoid CB2 Receptor turned out to be 22%; at Cannabinoid CB1 Receptor (setting [1]) it was 38%.
For the molecule `C[C@@H](NC(=O)c1nn(-c2ccc(Cl)cc2Cl)c2c1COC/C2=C\c1ccc(Cl)o1)c1ccccc1` [Cpd 69, (7Z)-7-(5-chloro-furan-2-ylmethylene)-1-(2,4-dichloro-phenyl)-1,4,6,7-tetrahydro-pyrano[4,3-c]pyrazole-3-carboxylic acid [(R)-1-phenyl-ethyl]-amide], the inhibition at 0.2 µM at Cannabinoid CB2 Receptor is 15%; at Cannabinoid CB1 Receptor (setting [1]), 73%. The molecule further registered an IC50 on Cannabinoid CB1 Receptor of 0.05 µM.
Consider `C[C@H](NC(=O)c1nn(-c2ccc(Cl)cc2Cl)c2c1COC/C2=C\c1ccc(Cl)o1)c1ccccc1` [Cpd 70, (7Z)-7-(5-chloro-furan-2-ylmethylene)-1-(2,4-dichloro-phenyl)-1,4,6,7-tetrahydro-pyrano[4,3-c]pyrazole-3-carboxylic acid [(S)-1-phenyl-ethyl]-amide], for which the inhibition at 0.2 µM on Cannabinoid CB2 Receptor turned out to be 15%; at Cannabinoid CB1 Receptor (setting [1]), 41%.
As to `O=C(NN1CC2CCCC2C1)c1nn(-c2ccc(Cl)cc2Cl)c2c1COC/C2=C\c1ccc(Cl)o1` (centres unmarked) [Cpd 71, (7Z)-7-(5-chloro-furan-2-ylmethylene)-1-(2,4-dichloro-phenyl)-1,4,6,7-tetrahydro-pyrano[4,3-c]pyrazole-3-carboxylic acid (hexahydro-cyclopenta[c]pyrrol-2-yl)-amide], the inhibition at 0.2 µM at Cannabinoid CB2 Receptor was 17%; at Cannabinoid CB1 Receptor (setting [1]), 71%. Also, the IC50 at Cannabinoid CB1 Receptor stood at 0.04 µM.
On to `O=C(NN1CCCC1)c1nn(-c2ccc(Cl)cc2Cl)c2c1COC/C2=C\c1ccc(Cl)o1` [Cpd 72, (7Z)-7-(5-chloro-furan-2-ylmethylene)-1-(2,4-dichloro-phenyl)-1,4,6,7-tetrahydro-pyrano[4,3-c]pyrazole-3-carboxylic acid pyrrolidin-1-ylamide], for which the inhibition at 0.2 µM stood at 8% on Cannabinoid CB2 Receptor and 48% at Cannabinoid CB1 Receptor (setting [1]).
The corresponding values for `COC[C@@H]1CCCN1NC(=O)c1nn(-c2ccc(Cl)cc2Cl)c2c1COC/C2=C\c1ccc(Cl)s1` [Cpd 73, (7Z)-7-(5-chloro-thiophen-2-ylmethylene)-1-(2,4-dichloro-phenyl)-1,4,6,7-tetrahydro-pyrano[4,3-c]pyrazole-3-carboxylic acid [(2S)-2-methoxymethyl-pyrrolidin-1-yl]-amide] are 11% and 57%.
Consider `COC[C@H]1CCCN1NC(=O)c1nn(-c2ccc(Cl)cc2Cl)c2c1COC/C2=C\c1ccc(Cl)s1` [Cpd 74, (7Z)-7-(5-chloro-thiophen-2-ylmethylene)-1-(2,4-dichloro-phenyl)-1,4,6,7-tetrahydro-pyrano[4,3-c]pyrazole-3-carboxylic acid [(2R)-2-methoxymethyl-pyrrolidin-1-yl]-amide], for which the inhibition at 0.2 µM on Cannabinoid CB2 Receptor came to 12%; on Cannabinoid CB1 Receptor (setting [1]), 65%.
On to `COC[C@H]1CCCN1NC(=O)c1nn(-c2ccc(Cl)cc2Cl)c2c1COC/C2=C\c1ccc(F)cc1` [Cpd 75, (7Z)-1-(2,4-dichloro-phenyl)-7-(4-fluoro-benzylidene)-1,4,6,7-tetrahydro-pyrano[4,3-c]pyrazole-3-carboxylic acid [(2R)-2-methoxymethyl-pyrroldin-1-yl]-amide], for which the inhibition at 0.2 µM on Cannabinoid CB2 Receptor is 15%; on Cannabinoid CB1 Receptor (setting [1]), 68%.
“(7Z)-7-(5-chloro-thiophen-2-ylmethylene)-1-(2,4-dichloro-phenyl)-1,4,6,7-tetrahydro-pyrano[4,3-c]pyrazole-3-carboxylic acid [(2S)-2-benzyl-pentyl]-amide [Cpd 59]”: the “Cannabinoid CB2 Receptor Binding, percent inhibition” value at Cannabinoid CB2 Receptor was 17%. The “Cannabinoid CB1 Receptor Binding, percent inhibition” value at Cannabinoid CB1 Receptor (setting [1]) was found to be 38%.
For the molecule “(7Z)-azepan-1-yl-[1-(2,4-dichloro-phenyl)-7-(4-fluoro-benzylidene)-1,4,6,7-tetrahydro-pyrano[4,3-c]pyrazol-3-yl]-methanone [Cpd 28]”, the “Cannabinoid CB2 Receptor Binding, percent inhibition” value at Cannabinoid CB2 Receptor amounted to 10%. On Cannabinoid CB1 Receptor (human CB1 in SK-N-MC membranes, radioligand CP-55,940 0.2 nM, calculated by linear regression, read-out: Cannabinoid CB1 Receptor Binding, IC50 binding value), the IC50 was 0.009 µM. Further, at Cannabinoid CB1 Receptor (setting [1]), the “Cannabinoid CB1 Receptor Binding, percent inhibition” value came to 88%.
With “azepan-1-yl-[1-(2,4-dichloro-phenyl)-7-(4-fluoro-benzyl)-1,4,6,7-tetrahydro-pyrano[4,3-c]pyrazol-3-yl]-methanone [Cpd 25]”, on Cannabinoid CB2 Receptor, the “Cannabinoid CB2 Receptor Binding, percent inhibition” value is 0%. For the same molecule, on Cannabinoid CB1 Receptor (setting [1]), the “Cannabinoid CB1 Receptor Binding, percent inhibition” value stood at 50%.
